{
  "source": "paper PMC3625111",
  "about": "(Biochemical Pharmacology, 2013)",
  "key": {"[1]": {"conditions": "cited from earlier work; for brain uptake: ref not given"}, "SH-SY5Y cells": {"test_system": "SH-SY5Y cells", "assay": "Hsp20 phosphorylation assay (western blot, phospho-serine 16)", "type": "cell-based", "conditions": "for Hsp20 phosphorylation (serine 16): rolipram 10 μM, moexipril, 7, 8 at 50 μM, 0.5, 1, 2 h", "protocol": "Compounds were diluted in media and added to cells for 0.5, 1 and 2 h prior to harvesting using 3T3 lysis buffer (1% Triton X-100, 50 mM Hepes, pH 7.2, 10 mM EDTA and 100 mM NaH2PO4) supplemented with protease inhibitor Mini-Complete (Roche) and phosphatase inhibitor PHOS-stop (Roche, UK). Hsp20 expression was analysed using standard SDS-PAGE and Western Blotting techniques using the phospho-Hsp20 antibody (ab58522 Abcam, UK) and alpha-tubulin-HRP antibody (ab40742 Abcam, UK) as the loading control. Western blotting for PDE4s was undertaken using antibodies previously described by us."}, "[2]": {"test_system": "SH-SY5Y cells stably expressing Epac1-camps", "assay": "FRET imaging of cAMP with Epac1-camps biosensor", "type": "cell-based", "conditions": "added after forskolin 5 μM", "protocol": "HEK293 cells were maintained in DMEM containing 10% (v/v) FBS, 2 mM L-glutamine and 1% penicillin/streptomycin. SH-SY5Y cells were maintained in DMEM:F12 (1:1) containing 10% (v/v) FBS, 2 mM L-glutamine and 1% penicillin/streptomycin. For FRET analysis SH-SY5Y cells stably expressing Epac1-camps under G418 selection (500 μg/ml) were seeded onto 22 mm round glass coverslips and maintained in a 6 well plate 24 h prior to use.\nFRET imaging experiments were performed on SH-SY5Y-Epac1-camps stables. Cells were maintained at room temperature in DPBS (Invitrogen, UK), with added CaCl2 and MgCl2, and imaged on an inverted microscope (Olympus IX71) with a PlanApoN, 60X, NA 1.42 oil, 0.17/FN 26.5, objective (Japan). The microscope was equipped with a CCD camera (cool SNAP HQ monochrome, Photometrics), and a beam-splitter optical device (Dual-channel simultaneous-imaging system, DV^2 mag biosystem (ET-04-EM)). Imaging acquisition and analysis software used was Meta imaging series 7.1, Metafluor, and processed using ImageJ (http://rsb.info.nih.gov/ij/). FRET changes were measured as changes in the background-subtracted 480/545-nm fluorescence emission intensity on excitation at 430 nm and expressed as either R/R0, where R is the ratio at time t and R0 is the ratio at time = 0 s, or ΔR/R0, where ΔR = R − R0. Values are expressed as the mean ± SEM."}, "PDE4B2": {"target": "T1, PDE4B2 (Homo sapiens, UniProt Q07343)", "T1 construct": "expressed in transfected cells; host or cells: HEK293", "T1 sequence (Q07343 1-564 isoform Q07343-2)": "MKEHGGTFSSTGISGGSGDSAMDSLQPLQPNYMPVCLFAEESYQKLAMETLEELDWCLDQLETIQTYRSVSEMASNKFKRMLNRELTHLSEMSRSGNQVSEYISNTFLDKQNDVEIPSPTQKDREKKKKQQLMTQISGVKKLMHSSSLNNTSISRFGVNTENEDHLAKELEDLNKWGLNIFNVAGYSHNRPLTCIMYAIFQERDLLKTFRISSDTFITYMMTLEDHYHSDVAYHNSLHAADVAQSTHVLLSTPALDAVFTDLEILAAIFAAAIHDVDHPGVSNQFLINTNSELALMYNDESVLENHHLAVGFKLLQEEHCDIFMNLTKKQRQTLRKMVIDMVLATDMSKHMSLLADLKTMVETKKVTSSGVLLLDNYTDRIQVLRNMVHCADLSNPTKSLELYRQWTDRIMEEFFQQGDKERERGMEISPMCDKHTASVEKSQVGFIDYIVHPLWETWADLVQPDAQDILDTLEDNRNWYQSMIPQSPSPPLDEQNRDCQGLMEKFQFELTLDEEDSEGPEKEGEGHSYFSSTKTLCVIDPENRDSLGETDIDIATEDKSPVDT", "assay": "PDE activity two-step radioassay, PDE4B2 lysate", "type": "biochemical", "conditions": "for IC50: PDE4B2 from transfected HEK293 lysate, cAMP hydrolysis, n = 3", "protocol": "(§1) Expression plasmids encoding human PDE4 were as previously described by us [[27,28]]. The plasmids were purified from Escherichia coli using the Maxi-prep system (Qiagen, UK). For transient transfections, HEK293 cells were seeded at a 1:3 ratio into culture flasks 24 h before transfection so that cells were ~60% confluent by the time of transfection. Transfections were carried out using PolyFect® transfection reagent (Qiagen, UK) in accordance with manufacturer's instructions.\nSamples were then frozen on solid CO2, thawed and then manually homogenised, followed by passage through a 26-gauge needle several times to ensure complete cell lysis. Cells were centrifuged at 13,000 rpm for 10 min to remove any unbroken cells, and the resulting supernatant was frozen in solid CO2 and stored at −80 °C until required. For experimentation, the protein concentration of whole-cell lysate from transfected and mock-transfected (vector only) cells was equalised (typically to 1 μg/μl). Protein concentration was determined through Bradford Assay using bovine serum albumin as standard.\n(§2) PDE activity was determined using a two-step radioassay procedure as described previously. Activities for each PDE subtype were related to a non-drug treated sample (100% control) over an increasing dose of the indicated compounds. IC50 values were calculated using."}, "[3]": {"set-up": "method as in PMID 3508548, PMID 2999531", "conditions": "use in hypertension; cited from earlier work"}, "beta-lactamase": {"target": "beta-lactamase (Escherichia coli, UniProt P00811)", "sequence (P00811 20-377)": "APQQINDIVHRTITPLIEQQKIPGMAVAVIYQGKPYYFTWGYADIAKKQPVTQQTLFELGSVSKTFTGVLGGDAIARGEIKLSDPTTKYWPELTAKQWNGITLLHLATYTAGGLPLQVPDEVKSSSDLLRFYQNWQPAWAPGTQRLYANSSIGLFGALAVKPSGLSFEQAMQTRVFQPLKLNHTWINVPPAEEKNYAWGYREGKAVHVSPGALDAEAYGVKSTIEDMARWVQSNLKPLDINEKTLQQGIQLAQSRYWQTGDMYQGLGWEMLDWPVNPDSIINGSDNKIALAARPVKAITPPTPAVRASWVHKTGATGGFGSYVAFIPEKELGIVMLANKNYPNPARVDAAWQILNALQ", "assay": "beta-lactamase inhibition (aggregation counter-screen)", "type": "biochemical", "conditions": "at 10 or 100 μM"}, "PDE4D5": {"target": "T2, PDE4D5 (Homo sapiens, UniProt Q08499)", "T2 construct": "expressed in transfected cells; host or cells: HEK293", "T2 sequence (Q08499 1-745 isoform Q08499-6)": "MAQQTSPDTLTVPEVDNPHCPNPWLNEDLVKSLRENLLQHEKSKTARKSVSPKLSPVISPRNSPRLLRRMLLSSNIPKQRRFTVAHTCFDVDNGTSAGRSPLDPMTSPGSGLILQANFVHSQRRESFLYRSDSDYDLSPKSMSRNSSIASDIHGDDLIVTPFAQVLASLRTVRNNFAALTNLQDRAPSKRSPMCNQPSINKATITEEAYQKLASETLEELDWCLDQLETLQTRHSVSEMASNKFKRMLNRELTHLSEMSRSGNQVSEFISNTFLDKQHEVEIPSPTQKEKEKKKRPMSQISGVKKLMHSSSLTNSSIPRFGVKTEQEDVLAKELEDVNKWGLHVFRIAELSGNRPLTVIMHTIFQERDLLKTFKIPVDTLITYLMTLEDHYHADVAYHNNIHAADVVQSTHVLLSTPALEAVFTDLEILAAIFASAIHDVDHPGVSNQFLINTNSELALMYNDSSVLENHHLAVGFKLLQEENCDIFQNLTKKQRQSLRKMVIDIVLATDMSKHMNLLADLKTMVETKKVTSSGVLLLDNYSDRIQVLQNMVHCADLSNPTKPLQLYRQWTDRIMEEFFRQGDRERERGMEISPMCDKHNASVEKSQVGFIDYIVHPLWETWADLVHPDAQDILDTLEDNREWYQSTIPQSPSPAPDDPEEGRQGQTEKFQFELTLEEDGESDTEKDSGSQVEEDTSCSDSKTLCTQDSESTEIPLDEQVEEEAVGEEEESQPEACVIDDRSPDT", "assay": "PDE activity two-step radioassay, PDE4D5 lysate", "type": "biochemical", "protocol": "as §1\nCells (~90–100% confluent) were transfected for 48 h with cDNA encoding PDE4B2, PDE4A5, PDE4D5, PDE8A and PDE5, washed with PBS and harvested by using a cell scraper in KHEM buffer (50 mM KCl, 50 mM HEPES; pH 7.2, 10 mM EGTA, 1.92 mM MgCl2, 1 mM dithiothreitol (DTT)) supplemented with protease inhibitor Mini-Complete (Roche, UK). Samples were then frozen on solid CO2, thawed and then manually homogenised, followed by passage through a 26-gauge needle several times to ensure complete cell lysis. Cells were centrifuged at 13,000 rpm for 10 min to remove any unbroken cells, and the resulting supernatant was frozen in solid CO2 and stored at −80 °C until required. […] Protein concentration was determined through Bradford Assay using bovine serum albumin as standard.\nPDE activity was determined using a two-step radioassay procedure as described previously. […] IC50 values were calculated using. […]"}, "[4]": {"set-up": "method as in printed", "conditions": "oral dose of 15 mg, ref not given, cited from earlier work"}, "PDE5": {"target": "T3, PDE5 (Homo sapiens, UniProt O76074)", "T3 construct": "expressed in transfected cells; host or cells: HEK293", "assay": "PDE activity two-step radioassay, PDE5 lysate", "type": "biochemical", "conditions": "dose response, Fig. 3C", "protocol": "(§3) Cells (~90–100% confluent) were transfected for 48 h with cDNA encoding PDE4B2, PDE4A5, PDE4D5, PDE8A and PDE5, washed with PBS and harvested by using a cell scraper in KHEM buffer (50 mM KCl, 50 mM HEPES; pH 7.2, 10 mM EGTA, 1.92 mM MgCl2, 1 mM dithiothreitol (DTT)) supplemented with protease inhibitor Mini-Complete (Roche, UK). Samples were then frozen on solid CO2, thawed and then manually homogenised, followed by passage through a 26-gauge needle several times to ensure complete cell lysis. Cells were centrifuged at 13,000 rpm for 10 min to remove any unbroken cells, and the resulting supernatant was frozen in solid CO2 and stored at −80 °C until required. For experimentation, the protein concentration of whole-cell lysate from transfected and mock-transfected (vector only) cells was equalised (typically to 1 μg/μl). Protein concentration was determined through Bradford Assay using bovine serum albumin as standard.\nas §2, with “using. In all cases, the transfected PDE accounted for over 97% of the total PDE activity when compared with the untransfected control lysates.” for “using.”"}, "[5]": {"assay": "Colloidal aggregation by dynamic light scattering", "type": "physicochemical"}, "porcine serum ACE": {"test_system": "porcine serum ACE", "set-up": "method as in PMID 3508548, PMID 2999531", "conditions": "vs porcine serum ACE; cited from earlier work"}, "PDE8A": {"target": "T4, PDE8A (Homo sapiens, UniProt O60658)", "T4 construct": "expressed in transfected cells; host or cells: HEK293", "T4 sequence (O60658 whole entry, species assumed)": "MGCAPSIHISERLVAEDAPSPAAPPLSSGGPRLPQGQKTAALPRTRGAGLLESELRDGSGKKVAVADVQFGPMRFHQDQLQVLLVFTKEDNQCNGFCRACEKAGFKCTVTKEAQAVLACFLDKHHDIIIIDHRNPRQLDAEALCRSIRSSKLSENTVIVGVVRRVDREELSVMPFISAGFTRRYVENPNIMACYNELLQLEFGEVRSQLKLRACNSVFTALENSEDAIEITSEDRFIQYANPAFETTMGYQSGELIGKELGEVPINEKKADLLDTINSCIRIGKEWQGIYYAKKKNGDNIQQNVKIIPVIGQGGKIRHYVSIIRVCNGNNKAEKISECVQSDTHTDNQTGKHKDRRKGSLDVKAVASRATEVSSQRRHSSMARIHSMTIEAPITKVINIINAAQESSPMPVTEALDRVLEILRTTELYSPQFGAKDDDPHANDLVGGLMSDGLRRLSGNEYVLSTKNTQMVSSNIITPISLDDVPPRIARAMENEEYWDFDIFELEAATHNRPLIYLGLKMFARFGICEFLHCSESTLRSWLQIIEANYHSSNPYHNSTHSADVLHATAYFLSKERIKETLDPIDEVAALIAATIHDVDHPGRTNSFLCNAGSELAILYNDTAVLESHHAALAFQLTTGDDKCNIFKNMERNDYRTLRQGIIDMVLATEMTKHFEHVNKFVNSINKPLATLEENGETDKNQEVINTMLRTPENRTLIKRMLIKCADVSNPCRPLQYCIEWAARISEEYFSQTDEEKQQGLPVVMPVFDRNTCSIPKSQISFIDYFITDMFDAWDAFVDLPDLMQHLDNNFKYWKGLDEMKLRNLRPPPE", "assay": "PDE activity two-step radioassay, PDE8A lysate", "type": "biochemical", "conditions": "dose response, Fig. 3C", "protocol": "as §3\nas §2, with “using. In all cases, the transfected PDE accounted for over 97% of the total PDE activity when compared with the untransfected control lysates.” for “using.”"}},
  "note": "“Also recorded” adds a separate entry of the source. Where two headings read alike, the source gives them in different places.",
  "data": [
    {"smiles": "COc1cc2c(cc1OC)CN(C(=O)[C@H](C)N[C@@H](CCc1ccccc1)C(=O)O)[C@H](C(=O)O)C2", "note": "[moexiprilat]", "values": [
      {"measurement": "brain uptake", "setting": "[1]", "result": "poor uptake by the brain"}
    ]},
    {"smiles": "COc1cc2c(cc1OC)CN(C(=O)Cn1cnc3ccccc3c1=O)[C@H](C(=O)O)C2", "note": "(racemic) [Compound 7]", "values": [
      {"measurement": "Hsp20 phosphorylation (serine 16)", "setting": "SH-SY5Y cells", "result": "induced Hsp20 phosphorylation"},
      {"measurement": "cellular cAMP increase (FRET ratio change) over forskolin alone", "setting": "[2]", "result": "significantly enhanced"},
      {"measurement": "IC50", "setting": "PDE4B2", "result": 89, "unit": "µM"}
    ]},
    {"smiles": "CCOC(=O)[C@H](CCc1ccccc1)N[C@@H](C)C(=O)N1Cc2cc(OC)c(OC)cc2C[C@H]1C(=O)O", "note": "[moexipril]", "values": [
      {"measurement": "emetogenic activity", "setting": "[3]", "result": "apparently lacking emetogenic activity"},
      {"measurement": "inhibition of beta-lactamase", "setting": "beta-lactamase", "result": "did not inhibit"},
      {"measurement": "Hsp20 phosphorylation (serine 16)", "setting": "SH-SY5Y cells", "result": "significantly increased"},
      {"measurement": "IC50", "setting": "PDE4D5; PDE4D5, n = 3", "result": 230, "unit": "µM"},
      {"measurement": "fold lower sensitivity to inhibition than PDE4B2", "setting": "PDE4D5; PDE4D5 vs PDE4B2", "result": 6, "unit": "fold"},
      {"measurement": "Cmax", "setting": "[4]; conversion of 25 μg/L, read-out: Cmax", "result": "~50", "unit": "nM"},
      {"measurement": "Cmax", "setting": "[4]; one PK assessment", "result": 25, "unit": "ng/mL"},
      {"measurement": "brain uptake", "setting": "[1]", "result": "poor uptake by the brain"},
      {"measurement": "activity against PDE5", "setting": "PDE5", "result": "no activity"},
      {"measurement": "colloidal aggregation", "setting": "[5]", "result": "no particles were observed"},
      {"measurement": "IC50", "setting": "porcine serum ACE", "result": 0.04, "unit": "µM"},
      {"measurement": "cellular cAMP increase (FRET ratio change) over forskolin alone", "setting": "[2]", "result": "markedly potentiated; also recorded: significantly enhance"},
      {"measurement": "IC50", "setting": "PDE4B2", "result": 38, "unit": "µM"},
      {"measurement": "activity against PDE8A", "setting": "PDE8A", "result": "no activity"}
    ]},
    {"smiles": "CCCCCCOC(=O)[C@]1(O)C[C@@H]2O[C@@]1(C)n1c3ccccc3c3c4c(c5c6ccccc6n2c5c31)C(=O)NC4", "note": "[KT5720]", "values": [
      {"measurement": "effect on Hsp20 phosphorylation induced by moexipril and forskolin", "setting": "SH-SY5Y cells; KT5720 4 μM 20 min before forskolin 10 μM with moexipril 50 μM, 5 min", "result": "attenuate"}
    ]},
    {"smiles": "COc1ccc([C@]2(C#N)CC[C@@H](C(=O)O)CC2)cc1OC1CCCC1", "note": "[cilomilast]", "values": [
      {"measurement": "brain penetration", "setting": "[1]", "result": "limited"}
    ]},
    {"smiles": "COc1ccc(C2CNC(=O)C2)cc1OC1CCCC1", "note": "(stereo not shown) [rolipram]", "values": [
      {"measurement": "Hsp20 phosphorylation (serine 16)", "setting": "SH-SY5Y cells", "result": "significantly increased"}
    ]},
    {"smiles": "COc1cc2c(cc1OC)CN(C(=O)CCc1c[nH]c3ccccc13)[C@H](C(=O)O)C2", "note": "(racemic) [Compound 8]", "values": [
      {"measurement": "Hsp20 phosphorylation (serine 16)", "setting": "SH-SY5Y cells", "result": "induced Hsp20 phosphorylation"},
      {"measurement": "cellular cAMP increase (FRET ratio change) over forskolin alone", "setting": "[2]", "result": "significantly enhanced"},
      {"measurement": "fold better IC50 than moexipril", "setting": "PDE4B2; PDE4B2", "result": 7, "unit": "fold"},
      {"measurement": "IC50", "setting": "PDE4B2", "result": 6.9, "unit": "µM"}
    ]}
  ]
}
